In one data set the test system is rats. As to the kind of experiment: Toxicity, LD50 in rats. The data set is classed as in vivo.
A further data set is described as follows: Solubility in solvents. The data set is classed as physicochemical.
Data set [1] concerns the target maltase prepared from porcine intestinal mucosa. As to the kind of experiment: maltase inhibitory activity, maltose as substrate. It is filed as biochemical. To be noted: substrate 0.05 M maltose, read-out: IC50 (M), concentration of 50% inhibition. Here is the method:
(§1) The inhibitory activities of the compounds of this invention against α-glucosidase (yeast, type I, produced by Sigma Chemical Co.,U.S.A.)as well as maltase and saccharase prepared from porcine intestinal mucosa (prepared in accordance with the procedure as described by B. Borgstroom and A. Dahlgvist in Acta Chem. Scand.; 12, 1997-2006, (1958)), when maltose and sucrose are used as a substrate, are determined by adding to 0.25 ml of a solution of an enzyme prepared by diluting suitably with 0.02 M phosphate buffer (pH 6.8) 0.5 ml of a solution of an inhibitory substance to be tested in the same buffer and 0.25 ml of 0.05 M maltose or 0.05 M sucrose as the substrate in the same buffer allowing the mixture to react at 37° C. for 10 minutes, then adding 3 ml of Glucose B-Test Reagent (a glucose oxidase reagent for measurement of glucose, produced by Wako Pure Chemical Co., Japan), further warming the mixture at 37° C. for 20 minutes and measuring the absorbance of the reaction solution at 505 nm.

For data set [2], the target named is T1, saccharase prepared from porcine intestinal mucosa (Sus scrofa, UniProt P56729).
T1 construct: sucrase is the C-terminal subunit cleaved from the SI precursor, paired with isomaltase
T1 sequence (P56729 with tags, fused parts or gaps): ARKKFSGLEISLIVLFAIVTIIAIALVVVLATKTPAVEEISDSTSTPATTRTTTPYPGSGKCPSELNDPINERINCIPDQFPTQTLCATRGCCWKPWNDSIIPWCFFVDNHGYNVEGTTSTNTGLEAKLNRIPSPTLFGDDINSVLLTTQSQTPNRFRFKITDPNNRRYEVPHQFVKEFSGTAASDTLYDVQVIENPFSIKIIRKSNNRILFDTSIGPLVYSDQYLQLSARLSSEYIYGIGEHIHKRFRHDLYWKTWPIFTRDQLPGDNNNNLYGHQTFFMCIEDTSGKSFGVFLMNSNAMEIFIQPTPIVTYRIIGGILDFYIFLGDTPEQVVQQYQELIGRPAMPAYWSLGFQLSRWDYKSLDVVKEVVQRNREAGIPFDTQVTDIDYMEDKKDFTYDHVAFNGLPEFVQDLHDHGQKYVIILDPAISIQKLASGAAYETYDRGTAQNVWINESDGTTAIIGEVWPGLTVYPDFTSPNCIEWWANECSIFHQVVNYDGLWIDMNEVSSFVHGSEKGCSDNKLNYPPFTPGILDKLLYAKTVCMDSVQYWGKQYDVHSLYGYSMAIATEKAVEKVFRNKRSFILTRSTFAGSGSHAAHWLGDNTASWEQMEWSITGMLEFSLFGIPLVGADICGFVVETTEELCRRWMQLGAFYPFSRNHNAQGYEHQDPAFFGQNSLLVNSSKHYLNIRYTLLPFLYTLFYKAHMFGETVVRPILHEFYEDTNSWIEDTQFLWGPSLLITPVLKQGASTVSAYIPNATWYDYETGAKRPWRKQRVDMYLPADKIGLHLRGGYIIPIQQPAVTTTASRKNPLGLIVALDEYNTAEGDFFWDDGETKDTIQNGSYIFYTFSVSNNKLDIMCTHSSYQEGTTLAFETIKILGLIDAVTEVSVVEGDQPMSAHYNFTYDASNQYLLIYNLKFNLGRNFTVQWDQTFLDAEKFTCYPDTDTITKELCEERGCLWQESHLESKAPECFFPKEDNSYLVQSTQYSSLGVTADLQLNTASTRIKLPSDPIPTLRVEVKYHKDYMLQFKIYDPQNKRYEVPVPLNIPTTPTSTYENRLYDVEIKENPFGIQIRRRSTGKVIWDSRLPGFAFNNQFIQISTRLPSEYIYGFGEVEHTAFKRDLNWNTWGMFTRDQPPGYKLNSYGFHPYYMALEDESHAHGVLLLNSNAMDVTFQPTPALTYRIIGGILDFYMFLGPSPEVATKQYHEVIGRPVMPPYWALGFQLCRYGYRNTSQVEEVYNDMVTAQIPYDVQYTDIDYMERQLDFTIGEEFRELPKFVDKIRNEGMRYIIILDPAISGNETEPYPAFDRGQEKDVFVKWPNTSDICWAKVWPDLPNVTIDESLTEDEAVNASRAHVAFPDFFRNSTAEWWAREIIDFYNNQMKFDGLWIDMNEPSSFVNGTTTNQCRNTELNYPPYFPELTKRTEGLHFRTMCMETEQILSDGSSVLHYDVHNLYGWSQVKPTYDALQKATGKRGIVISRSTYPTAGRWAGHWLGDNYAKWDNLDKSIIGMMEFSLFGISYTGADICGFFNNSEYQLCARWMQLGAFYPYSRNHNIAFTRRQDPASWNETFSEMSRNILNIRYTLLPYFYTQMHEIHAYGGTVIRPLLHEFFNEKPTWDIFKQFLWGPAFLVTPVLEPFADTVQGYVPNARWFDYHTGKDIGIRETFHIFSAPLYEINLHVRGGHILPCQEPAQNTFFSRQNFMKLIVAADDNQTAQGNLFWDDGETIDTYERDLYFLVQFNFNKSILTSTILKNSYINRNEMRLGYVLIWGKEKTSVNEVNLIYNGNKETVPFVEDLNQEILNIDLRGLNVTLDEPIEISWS
As to the kind of experiment: saccharase inhibitory activity, sucrose as substrate. It is filed as biochemical. The settings on record: substrate 0.05 M sucrose, read-out: IC50 (M), concentration of 50% inhibition. Here is the method: as §1

Setting [3] is: in ethanol, ethyl acetate, chloroform, acetone.
Where [4] appears, read: in water, dimethylsulfoxide, methanol.

A value given as a limit tells only on which side of the number the result lay.

Turning to `NC1CC(O)(CO)C(O)C(O)C1O` (centres unmarked) [compound [I], 5-amino-1-hydroxymethyl-1,2,3,4-cyclohexanetetrol], in the data set with rats, the LD50 was ≥ 500 mg.
Turning to `N[C@H]1C[C@](O)(CO)C(O)C(O)C1O` (some centres unmarked) [epivaliolamine], the Solubility entry in “Solubility in solvents” (setting [3]) is given as “Sparing soluble or insoluble”; in “Solubility in solvents” (setting [4]), “Soluble”. Also, in data set [1], the IC50 came to 0.00014 M.
As for `N[C@H]1C[C@](O)(CO)[C@@H](O)[C@H](O)[C@H]1O` [valiolamine, 1L(1S)-(1(OH), 2,4,5/1(CH2 OH),3)-5-amino-1-hydroxymethyl-1,2,3,4-cyclohexanetetrol], the Solubility result in “Solubility in solvents” (setting [3]) is on record as “Sparingly soluble or insoluble”; in the data set “Solubility in solvents” (setting [4]) it was “Soluble”. For the same compound, the IC50 in data set [2] amounted to 4.9e-08 M; in data set [1], 2.2e-06 M.

These data come from US4946779A, “Pseudo-aminosugars, their production and use” (Takeda Chemical Industries, Ltd., priority 1981, dated 1990).
